Read-outs that look alike come from different tables or passages of the source.
System: SARS-CoV-2
Assay: microbe, parasite or virus in culture
Format: cell-based, SARS-CoV-2 variant omicron XBB.1.16.11
Conditions: for antiviral activity against SARS-CoV-2 (in words): up to 50 μM
[1] = Severe acute respiratory syndrome coronavirus 2, Vero C1008, read-out: EC50, concentration required to reduce the SARS-CoV-2 replication in Vero cells by 50%
[2] = Severe acute respiratory syndrome coronavirus 2, plaque assay, SARS-CoV-2 in Vero cells, read-out: 95% confidence interval (CI) of EC50

Structure (SMILES) | EC50 [1] [µM] | EC50 [2] [µM] | antiviral activity against SARS-CoV-2 (in words) (plaque assay)
CC(C)c1ccc(Cn2cc(/C=C/C(=O)/C=C(\O)C(=O)O)c3ccccc32)cc1 [5c] | 9.41 ± 0.91 | 8.54 to 10.4 | 
O=C(/C=C(\O)C(=O)O)/C=C/c1cn(Cc2ccc(OC(F)(F)F)cc2)c2ccccc12 [5e] | 9.4 ± 2.26 | 7.36 to 11.9 | 
N#Cc1ccc(Cn2cc(/C=C/C(=O)/C=C(\O)C(=O)O)c3ccccc32)cc1 [5g, (2Z,5E)-6-(1-(4-cyanobenzyl)-1H-indol-3-yl)-2-hydroxy-4-oxohexa-2,5-dienoic acid] | 14.5 ± 4.2 | 10.9 to 19.3 | 
O=C(/C=C(\O)C(=O)O)/C=C/c1cn(Cc2ccc(F)cc2)c2ccc(Cl)cc12 [5i, (2Z,5E)-6-(5-chloro-1-(4-fluorobenzyl)-1H-indol-3-yl)-2-hydroxy-4-oxohexa-2,5-dienoic acid] | 6.77 ± 1.17 | 5.69 to 8.03 | 
CCOC(=O)/C(O)=C/C(=O)/C=C/c1cn(Cc2ccc(OC(F)(F)F)cc2)c2ccccc12 [6e] | 50 |  | low activity
CCOC(=O)/C(O)=C/C(=O)c1cn(Cc2ccc(F)cc2)c2ccccc12 [8d, Ethyl (Z)-4-(1-(4-fluorobenzyl)-1H-indol-3-yl)-2-hydroxy-4-oxobut-2-enoate] | > 50 |  | not showed any antiviral activity up to the maximum concentration tested
CC(C)=Cn1cc(/C=C/C(=O)/C=C(\O)C(=O)O)c2ccccc21 [9c, (2Z,5E)-2-hydroxy-6-(1-(2-methylprop-1-en-1-yl)-1H-indol-3-yl)-4-oxohexa-2,5-dienoic acid] | 4.23 ± 0.96 | 3.33 to 5.26 | 
